By MIC is commonly meant the least concentration at which growth counts as inhibited. By MFC is commonly meant the smallest concentration meeting the test's criterion for killing the fungus. Read a high MFC as less potent killing. The term inhibition denotes the share of the control response that was lost under treatment.

Data set [1] deals with Cryptococcus neoformans. The experiment in a line: Antifungal activity against Cryptococcus neoformans PFCC 93-589 after 2 days in absence of sorbitol by microdilution assay. In kind it is functional. Particulars: PFCC 93-589, 48 h, time 2 day. On the technique in general: In broth dilution the organism is exposed to a series of concentrations in liquid medium.
Data set [2] in a line: Hemolytic activity in human RBC at 16 ug/ml incubated for 30 mins. In kind it is ADME, cell-based, Erythrocyte. Conditions: red blood cells (erythrocytes), at 16 µg/mL, read-out: Activity.
The subject of data set [3] is Cryptococcus neoformans. The experiment in a line: Fungicidal activity against Cryptococcus neoformans PFCC 93-589 by broth microdilution assay. In kind it is functional.
Data set [4] concerns Cryptococcus neoformans. The experiment in a line: Inhibition of ergosterol biosynthesis in Cryptococcus neoformans PFCC 93-589 cell membrane assessed as ergosterol content at 0.5 times MIC incubated for 48 hrs by UV-visible spectrophotometric analysis (reference value: 0.134). In kind it is functional, cell membranes.
The nature of data set [5]: Cytotoxicity against human HEK293 cells assessed as cell survival at 1 times MIC incubated for 24 hrs by MTT assay. Particulars: read-out: Activity. In kind it is cell-based. For orientation: Tetrazolium assays rely on reduction of a dye to a coloured formazan, in cell work by metabolically active cells.
Data set [6] deals with Cryptococcus neoformans. The data set is described as follows: Induction of morphological changes in Cryptococcus neoformans PFCC 93-589 assessed as disorganization of cytoplasmic content at 4 ug/ml after 48 hrs by TEM analysis. Format: functional, organism-based. Particulars: dose 4.0 µg/ml.
The subject of data set [7] is Cryptococcus neoformans. The data set is described as follows: Inhibition of ergosterol biosynthesis in Cryptococcus neoformans PFCC 93-589 cell membrane at 1 times MIC incubated for 48 hrs by UV-visible spectrophotometric analysis. In kind it is functional, cell membranes.
Data set [8] is described as follows: Hemolytic activity in human RBC at 1 ug/ml incubated for 30 mins. In kind it is ADME, cell-based, Erythrocyte. Conditions: red blood cells (erythrocytes), at 1 µg/mL, read-out: Activity.
The test system of data set [9] is Cryptococcus neoformans. The experiment in a line: Downregulation of Cxt1p gene expression in Cryptococcus neoformans PFCC 93-589 at 4 ug/ml by SYBR green based RT-PCR analysis. Particulars: dose 4.0 µg/ml. Format: functional.
Data set [10] relates to Cryptococcus neoformans. The experiment in a line: Antifungal activity against Cryptococcus neoformans PFCC 93-589 after 7 days in absence of sorbitol by microdilution assay. Format: functional. Conditions: PFCC 93-589, 168 h, time 7 day.
Data set [11] relates to Cryptococcus neoformans. The experiment in a line: Upregulation of Lac1 gene expression in Cryptococcus neoformans PFCC 93-589 at 4 ug/ml by SYBR green based RT-PCR analysis. In kind it is functional. Particulars: dose 4.0 µg/ml.
Data set [12] deals with Cryptococcus neoformans. The data set is described as follows: Inhibition of ergosterol biosynthesis in Cryptococcus neoformans PFCC 93-589 cell membrane at 0.5 times MIC incubated for 48 hrs by UV-visible spectrophotometric analysis. In kind it is functional, cell membranes.
The subject of data set [13] is Cryptococcus neoformans. The data set is described as follows: Inhibition of ergosterol biosynthesis in Cryptococcus neoformans PFCC 93-589 cell membrane assessed as ergosterol content at 1 times MIC incubated for 48 hrs by UV-visible spectrophotometric analysis (reference value: 0.134). In kind it is functional, cell membranes.
The nature of data set [14]: Cytotoxicity against human HEK293 cells assessed as cell viability at 2 times MIC incubated for 24 hrs by MTT assay. Format: cell-based. Conditions: read-out: Activity.
The subject of data set [15] is Cryptococcus neoformans. The experiment in a line: Antifungal activity against Cryptococcus neoformans PFCC 93-589 by broth microdilution assay. In kind it is functional.
The nature of data set [16]: Hemolytic activity in human RBC at 2 ug/ml incubated for 30 mins. In kind it is ADME, cell-based, Erythrocyte. Conditions: red blood cells (erythrocytes), at 2 µg/mL, read-out: Activity.
Data set [17] has as its system Cryptococcus neoformans. The experiment in a line: Antifungal activity against Cryptococcus neoformans PFCC 93-589 assessed as half minimum inhibitory concentration by broth microdilution assay. Format: functional.
Data set [18] deals with Cryptococcus neoformans. The experiment in a line: Antifungal activity against Cryptococcus neoformans PFCC 93-589 in presence of Aureobasidin-A by checkerboard microtiter assay. Format: functional.
Data set [19] relates to Cryptococcus neoformans. The data set is described as follows: Antifungal activity against Cryptococcus neoformans PFCC 93-589 after 2 days in presence of sorbitol by microdilution assay. Particulars: PFCC 93-589, 48 h, time 2 day. Format: functional.
Data set [20] is described as follows: Cytotoxicity against human HEK293 cells assessed as cell survival at 0.5 times MIC incubated for 24 hrs by MTT assay. In kind it is cell-based. Particulars: read-out: Activity.
In data set [21] the test system is Cryptococcus neoformans. The experiment in a line: Induction of morphological changes in Cryptococcus neoformans PFCC 93-589 assessed as disintegration and loosening of cell membrane at 4 ug/ml after 48 hrs by TEM analysis. In kind it is functional, organism-based. Conditions: dose 4.0 µg/ml.
Data set [22] is described as follows: Hemolytic activity in human RBC at 8 ug/ml incubated for 30 mins. Format: ADME, cell-based, Erythrocyte. Conditions: red blood cells (erythrocytes), at 8 µg/mL, read-out: Activity.
In data set [23] the test system is Cryptococcus neoformans. The experiment in a line: Antifungal activity against Cryptococcus neoformans PFCC 93-589 after 7 days in presence of sorbitol by microdilution assay. In kind it is functional. Particulars: PFCC 93-589, 168 h, time 7 day.
Data set [24] in a line: Hemolytic activity in human RBC at 4 ug/ml incubated for 30 mins. Format: cell-based, Erythrocyte. Particulars: red blood cells (erythrocytes), at 4 µg/mL, read-out: Activity.
Data set [25] concerns Cryptococcus neoformans. The data set is described as follows: Antifungal activity against Cryptococcus neoformans PFCC 93-589 assessed as inhibition of melanin production at 0.5 times MIC incubated for 2 to 10 days. In kind it is functional, organism-based. Particulars: time 2-10 day.
Data set [26] can be described thus: Cytotoxicity against human HEK293 cells assessed as cell survival at 0.25 times MIC incubated for 24 hrs by MTT assay. Format: cell-based. Conditions: read-out: Activity.
In data set [27] the test system is Cryptococcus neoformans. The experiment in a line: Antifungal activity against Cryptococcus neoformans PFCC 93-589 assessed as increase in extracellular potassium leakage at 2 times MIC incubated up to 12 hrs measured per mg dry weight of cell by spectrophotometric method. Format: functional. Conditions: time hrs <=12.

Values after ≈ are worked out from the molar mass of the structure shown. Active and inactive are the calls of the source.

With `OC(Cn1cncn1)(Cn1cncn1)c1ccc(F)cc1F` [FLUCONAZOLE], the MIC in the data set on Cryptococcus neoformans [1] was determined as 16 µg/mL (≈ 52.2 µM); against Cryptococcus neoformans [10] it was 64 µg/mL (≈ 209 µM); in the data set with Cryptococcus neoformans [15] it was 8 µg/mL (≈ 26.1 µM); in the data set on Cryptococcus neoformans [17], 4 µg/mL (≈ 13.1 µM); in the data set on Cryptococcus neoformans [18] it was 0.5 µg/mL; in the data set with Cryptococcus neoformans [19], 16 µg/mL. For the same compound, the MIC with Cryptococcus neoformans [23] was 64 µg/mL. For the same compound, the hemolysis at 0.5 h, 16 ug/ml in data set [2] came to 53%. In the data set on Cryptococcus neoformans [3], the MFC was found to be 16 µg/mL (≈ 52.2 µM). Moreover, the Activity with Cryptococcus neoformans [4] worked out at 0.055; in the data set with Cryptococcus neoformans [13], 0.047. Moreover, the viability at 24 h, 1 times MIC in [5] was 95.5%. The result in the data set with Cryptococcus neoformans [6], with Cryptococcus neoformans [21] and with Cryptococcus neoformans [25] was Active. Besides, the inhibition in the data set with Cryptococcus neoformans [7] came out at 64.9%; with Cryptococcus neoformans [12], 59%. Also, the hemolysis at 0.5 h, 1 ug/ml in data set [8] was 18%. The inhibition result with Cryptococcus neoformans [9] is “inactive”. The outcome with Cryptococcus neoformans [11] was inactive. Further, the viability at 24 h, 2 times MIC in data set [14] turned out to be 88.6%. In addition, the hemolysis at 0.5 h, 2 ug/ml in data set [16] worked out at 29%. In addition, the viability at 24 h, 0.5 times MIC in data set [20] was 97.9%. For the same compound, the hemolysis at 0.5 h, 8 ug/ml in data set [22] is 42%. For the same compound, the hemolysis at 0.5 h, 4 ug/ml in data set [24] came to 34%. The viability at 24 h, 0.25 times MIC in data set [26] is 99.9%.

Take `C[C@@H]1[C@H](O)[C@@H](C)/C=C/C=C/C=C/C=C/C=C/C=C/C=C/[C@H](O[C@@H]2O[C@H](C)[C@@H](O)[C@H](N)[C@@H]2O)C[C@@H]2O[C@](O)(C[C@@H](O)C[C@@H](O)[C@H](O)CC[C@@H](O)C[C@@H](O)CC(=O)O[C@H]1C)C[C@H](O)[C@H]2C(=O)O` [AMPHOTERICIN B]: in the data set with Cryptococcus neoformans [3], the MFC is 1 µg/mL (≈ 1.08 µM). The figures for the MIC in the data set on Cryptococcus neoformans [15] and in the data set with Cryptococcus neoformans [17] were 0.25 µg/mL (≈ 0.271 µM) and 0.125 µg/mL (≈ 0.135 µM), respectively. Moreover, in the data set on Cryptococcus neoformans [27], the Activity is given as 3.56 mM.
